{
  "source": "paper PMC3160846",
  "about": "(PLoS ONE, 2011)",
  "key": {"KB cells [1]": {"test_system": "KB cells", "assay": "Clonogenic assay, KB", "type": "cell-based, Human", "conditions": "Homo sapiens, cervical, p53 wild-type, MDR1 negative (parental), read-out: IC50, anti-proliferative activity", "experimental": "(§1) Human lung adenocarcinoma A549 cells and NTUB1 bladder cancer cells were maintained in RPMI supplied with 10% fetal bovine serum. […] KB-derived MRP1-expressing cell line, KB-7D, was maintained in growth medium supplemented with 7 µM VP-16.\n(§2) Two hundred cells in logarithmic growth phase were seeded in a 6-well plate. The cells were exposed to various concentrations of the test drugs for a three-generation period. At the end of the incubation period, cells were fixed and stained with 50% ethanol containing 0.5% methylene blue for 30 min. The plates were washed five times with water and allowed to air-dry. Colonies were countered manually. […] Each value represents the average of at least three independent experiments run in triplicates."}, "HCT116 cancer cells": {"test_system": "HCT116 cancer cells", "assay": "Western blot of phosphor-Aurora kinases and phosphor-Histone H3 in HCT116 cells", "type": "cell-based", "experimental": "Cells were lysed with ice-cold lysis buffer (10 mM Tris, 1 mM EDTA, 1 mM DTT, 60 mM KCl, 0.5% NP-40 and protease inhibitors). […] The resolved proteins were electrophoretically transferred to PVDF membranes (Amersham Life Science, Amersham, U.K.) for Western blot analysis. The membranes were blocked with 5% non-fat milk at room temperature for two hours, washed twice with TBST (1% Tween) and then incubated with either anti-phosphorylated Aurora-A/-B/-C kinase antibody (#2914S, Cell Signaling Technology, Danvers, MA), anti-Aurora-A and -B kinase antibody (#ab1287 and #ab2254, Abcam, Cambridge, MA), anti-phosphorylated Histone H3 antibody (#9701, Cell Signaling Technology, Danvers, MA), anti-Histone H3 antibody (#9715, Cell Signaling Technology, Danvers, MA), anti-Cyclin B1 antibody or anti-Actin antibody (#sc-245 and #sc-130065, Santa Cruz Biotechnology, Santa Cruz, CA) overnight at 4°C. Membranes were washed twice with TBST then subsequently incubated with a horseradish peroxidase-conjugated secondary antibody (Santa Cruz Biotechnology, Santa Cruz, CA) for 1 hour at room temperature. Immunoreactivity was detected by Enhanced Chemiluminescence (Amersham International, Buckingham, U.K.) and autoradiography. Experiments were repeated independently at least two times."}, "KB cells [2]": {"test_system": "KB cells", "assay": "Apoptosis assays (Annexin-V, caspase-3/-7 imaging, TUNEL), KB", "type": "cell-based, Human", "conditions": "48-72 h", "experimental": "Cells were cultured in chamber-slides, incubated with test agents for 48 h, and washed twice with PBS. Cells were labeled with Annexin-V-FLUOS reagent (catalog number #11858777001, Roche, Indianapolis, IN) for 30 min at room temperature. The cells were analyzed by fluorescence microscopy.\nCaspase-3/-7 activity was analyzed with the MagicRed™ DEVD real-time caspase activity detection kit (catalog number #935, Immunochemistry Technologies LLC, Bloomington, MN). Briefly, cells were cultured in chamber-slides and incubated with test agents for various durations. Cells were then incubated with the Caspase-3/-7 substrate MR-(DEVD2) in culture medium for 1 hour, and then co-incubated with Hoechst 33342 for 15 min. Cells were viewed with a UV-enabled inverted-microscope at an excitation wavelength of 540 nm–560 nm and emission at 610 nm. Experiments were repeated independently at least two times.\nUnder in vitro conditions, cells were seeded and cultured in 8-well chamber-slides, and treated with various compounds. […] Cells were counterstained with DAPI to detect the nucleus, and examined by fluorescence microscopy. Amount of red fluorescence labeled (DNA fragmented) cells were counted and percentage of apoptotic cells were calculated as follows: Amount of the red fluorescence labeled cells ÷ Total cells available×100. […]"}, "IM9 cells": {"test_system": "IM9 cells", "assay": "Clonogenic assay, IM9", "type": "cell-based, Human", "conditions": "Homo sapiens; IM9, lymphoma, p53 wild-type, MDR1 negative; read-out: IC50, anti-proliferative activity", "experimental": "as §1, §2"}, "KB-VIN10 cells [3]": {"test_system": "KB-VIN10 cells", "assay": "Endo-replication (polyploidy), microscopy and flow cytometry, KB-VIN10", "type": "cell-based, Human", "conditions": "for formation of polyploidy (populations >4N): KB-VIN10, 48 h, same concentrations as KB", "experimental": "Cell cycle progression was monitored using flow cytometry. After drug treatment, cells were trypsinized, washed with PBS and fixed in 80% ethanol at −20°C for 1 h. The fixed cells were stained with propidium iodide (containing RNase) at room temperature in the dark for 20 min. The DNA content was determined by a fluorescence-activated cell sorting IV flow cytometer (BD Biosciences, Franklin Lakes, NJ). For each analysis, 10,000 cells were counted and the percentage of cells in each phase was calculated using the ModFit LT software (Verity Software House, Topsham, ME). Experiments were repeated independently at least three times."}, "KB-VIN10 cells [4]": {"test_system": "KB-VIN10 cells", "assay": "Apoptosis assays (Annexin-V, caspase-3/-7 imaging, TUNEL, PARP cleavage), KB-VIN10", "type": "cell-based, Human", "conditions": "for apoptosis: phosphatidylserine translocation, caspase-3/-7 activity, DNA fragmentation: KB-VIN10, 48-72 h", "experimental": "Cells were lysed with ice-cold lysis buffer (10 mM Tris, 1 mM EDTA, 1 mM DTT, 60 mM KCl, 0.5% NP-40 and protease inhibitors). […] The resolved proteins were electrophoretically transferred to PVDF membranes (Amersham Life Science, Amersham, U.K.) for Western blot analysis. […] Membranes were washed twice with TBST then subsequently incubated with a horseradish peroxidase-conjugated secondary antibody (Santa Cruz Biotechnology, Santa Cruz, CA) for 1 hour at room temperature. Immunoreactivity was detected by Enhanced Chemiluminescence (Amersham International, Buckingham, U.K.) and autoradiography. Experiments were repeated independently at least two times.\nThe cells were analyzed by fluorescence microscopy.\nBriefly, cells were cultured in chamber-slides and incubated with test agents for various durations. […] Cells were viewed with a UV-enabled inverted-microscope at an excitation wavelength of 540 nm–560 nm and emission at 610 nm. Experiments were repeated independently at least two times.\nUnder in vitro conditions, cells were seeded and cultured in 8-well chamber-slides, and treated with various compounds. The treated cells were washed with PBS, fixed with 4% paraformaldehyde for 30 min on ice, and permeabilized with PBST at room temperature. […] Cells were counterstained with DAPI to detect the nucleus, and examined by fluorescence microscopy. Amount of red fluorescence labeled (DNA fragmented) cells were counted and percentage of apoptotic cells were calculated as follows: Amount of the red fluorescence labeled cells ÷ Total cells available×100. Experiments were repeated independently at least two times."}},
  "data": [
    {"smiles": "CN(C)Cc1ccccc1NC(=O)Nc1ccc(CCNc2ncnc3oc(-c4ccccc4)c(Cl)c23)cc1", "note": "[BPR1K653]", "values": [
      {"measurement": "IC50", "setting": "KB cells [1]", "result": "12 ± 4", "unit": "nM"},
      {"measurement": "phosphor-Aurora-A, -B and -C kinase", "setting": "HCT116 cancer cells", "result": "concentration-dependent decrease"},
      {"measurement": "phosphor-Histone H3 (Ser10)", "setting": "HCT116 cancer cells", "result": "concentration-dependent decrease"},
      {"measurement": "apoptosis: phosphatidylserine translocation, caspase-3/-7 activity, DNA fragmentation", "setting": "KB cells [2]", "result": "induced the caspase-3/-7 activity and DNA fragmentation"},
      {"measurement": "IC50", "setting": "IM9 cells", "result": "4 ± 2", "unit": "nM"},
      {"measurement": "formation of polyploidy (populations >4N)", "setting": "KB-VIN10 cells [3]", "result": "induced the formation of polyploidy"},
      {"measurement": "cleavage of PARP", "setting": "KB-VIN10 cells [4]; KB-VIN10, 2× IC50 of KB, 72 h, Western blot", "result": "cleavage of PARP was only shown"},
      {"measurement": "apoptosis: phosphatidylserine translocation, caspase-3/-7 activity, DNA fragmentation", "setting": "KB-VIN10 cells [4]", "result": "induced the caspase-3/-7 activity and DNA fragmentation"}
    ]},
    {"smiles": "Cc1cc(Nc2cc(N3CCN(C)CC3)nc(Sc3ccc(NC(=O)C4CC4)cc3)n2)[nH]n1", "note": "[VX680]", "values": [
      {"measurement": "IC50", "setting": "KB cells [1]", "result": "85 ± 31", "unit": "nM"},
      {"measurement": "phosphor-Aurora-A, -B and -C kinase", "setting": "HCT116 cancer cells", "result": "reduced in a concentration-dependent manner"},
      {"measurement": "phosphor-Histone H3 (Ser10)", "setting": "HCT116 cancer cells", "result": "reduced the amount of phosphor-Histone H3 (Ser10)"},
      {"measurement": "apoptosis: phosphatidylserine translocation, caspase-3/-7 activity, DNA fragmentation", "setting": "KB cells [2]", "result": "only induced the translocation of the phosphatidylserine molecule, caspase-3/-7 activity and DNA fragmentation in KB cells"},
      {"measurement": "IC50", "setting": "IM9 cells", "result": "31 ± 16", "unit": "nM"},
      {"measurement": "formation of polyploidy (populations >4N)", "setting": "KB-VIN10 cells [3]", "result": "not in KB-VIN10 cells"},
      {"measurement": "formation of polyploidy, co-treated with verapamil", "setting": "KB-VIN10 cells [3]; KB-VIN10, + 10 µM verapamil", "result": "formation of the polyploidy population was shown"},
      {"measurement": "apoptosis: phosphatidylserine translocation, caspase-3/-7 activity, DNA fragmentation", "setting": "KB-VIN10 cells [4]", "result": "not in the MDR1-expressing KB-VIN10 cells"}
    ]}
  ]
}
